Laboratory results: US7807673B2, “2-pyrimidinyl pyrazolopyridine ErbB kinase inhibitors” (GlaxoSmithKline LLC, priority 2005, dated 2010)

Columns and labels:
ErbB2 or EGFR = molecular target: T1, ErbB2 or EGFR; experiment: ErbB enzyme substrate phosphorylation assay (HTRF), Method B (enzyme pre-incubated with compound 1 hour); type: biochemical; settings: Table 1, enzyme Method B: enzyme mix incubated with compound 1 hour at 20° C., reaction started with substrate mix; class over ErbB2 or EGFR
T1 construct: enzymes purified from a baculovirus expression system
Outline: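 Baculovirus-expressed kinase (0.8 nM EGFR or 10 nM ErbB2 in enzyme mix) phosphorylated biotinylated Peptide C (0.8 µM in substrate mix) with 20 µM ATP in substrate mix, MOPS pH 7.5, MnCl2, 90 min at 20 °C. Method A started with enzyme; Method B pre-incubated enzyme with compound 1 h at 20 °C. HTRF read-out; IC50 from 12-point curve (0.00027–47.6 µM), reported as pIC50.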

[1] = system: BT474 and HN5 tumor cell lines; experiment: Celltiter Glo growth inhibition assay (cellular Method B); type: cell-based; settings: Homo sapiens, BT-474, 72 h; Table 2, Method B Celltiter Glo, 3 days; class over BT474 and HN5;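 also: class counts the more potent of the two cell lines (BT474 or HN5)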
Outline: (§1)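 BT474, HN5 and Colo205 cells were each grown in their own 10% FBS medium, then exposed to compound for 3 days at 37 °C with 0.3% final DMSO. Growth was read by CellTiter-Glo luminescence as percent inhibition versus vehicle, and IC50 was interpolated by nonlinear regression.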

Colo205 tumor cell lines = experiment: as above; type: cell-based; settings: Homo sapiens, COLO 205, 72 h, Table 3, Method B Celltiter Glo, 3 days
Outline: as §1

| SMILES | Activity (Method) (ErbB2 or EGFR) | IC50 [1] [µM] | IC50 (Colo205 tumor cell lines) [µM] |
| --- | --- | --- | --- |
| O=C(Cc1c[nH]c2ccccc12)Nc1cccc(-c2nn3ccccc3c2-c2ccnc(Nc3cccc(-c4cnco4)c3)n2)c1 [Example 18, 2-(1H-Indol-3-yl)-N-{3-[3-(2-{[3-(1,3-oxazol-5-yl)phenyl]amino}-4-pyrimidinyl)pyrazolo[1,5-a]pyridin-2-yl]phenyl}acetamide] | ++ (B) (at least one pIC50 measurement greater than 6 against either ErbB2 or EGFR but no measurement greater than pIC50 of 7) | 0.1 to 1 | > 1 |
| O=C(Cc1c(F)cccc1F)Nc1cccc(-c2nn3ccccc3c2-c2ccnc(Nc3cccc(-c4cnco4)c3)n2)c1 [Example 20, 2-(2,6-Difluorophenyl)-N-{3-[3-(2-{[3-(1,3-oxazol-5-yl)phenyl]amino}-4-pyrimidinyl)pyrazolo[1,5-a]pyridin-2-yl]-phenyl}acetamide] | +++ (B) (at least one pIC50 measurement of greater than 7 against either ErbB2 or EGFR) | 0.1 to 1 | 0.1 to 1 |
| CN1CCc2ccc(Nc3ncc(F)c(-c4c(-c5cccc(NC(=O)c6c(F)cccc6F)c5)nn5ccccc45)n3)cc2C1 [Example 51, 2,6-Difluoro-N-[3-(3-{5-fluoro-2-[(2-methyl-1,2,3,4-tetrahydro-7-isoquinolinyl)amino]-4-pyrimidinyl}pyrazolo[1,5-a]pyridin-2-yl)phenyl]benzamide] | +++ (B) (at least one pIC50 measurement of greater than 7 against either ErbB2 or EGFR) | 0.1 to 1 | 0.1 to 1 |
| O=C(Cc1ccccn1)Nc1cccc(-c2nn3ccccc3c2-c2ccnc(Nc3cccc(-c4cnco4)c3)n2)c1 [Example 23, N-{3-[3-(2-{[3-(1,3-Oxazol-5-yl)phenyl]amino}-4-pyrimidinyl)pyrazolo[1,5-a]pyridin-2-yl]phenyl}-2-(2-pyridinyl)acetamide] | +++ (B) (at least one pIC50 measurement of greater than 7 against either ErbB2 or EGFR) | 0.1 to 1 | 0.1 to 1 |
| CN(C)C1Cc2ccc(Nc3nccc(-c4c(-c5ccc(F)c(NC(=O)Cc6cccs6)c5)nn5ccccc45)n3)cc2C1 (stereo not drawn) [Example 37, N-{5-[3-(2-{[2-(dimethylamino)-2,3-dihydro-1H-inden-5-yl]amino}-4-pyrimidinyl)pyrazolo[1,5-a]pyridin-2-yl]-2-fluorophenyl}-2-(2-thienyl)acetamide] | +++ (B) (at least one pIC50 measurement of greater than 7 against either ErbB2 or EGFR) | < 0.1 | 0.1 to 1 |
| CS(=O)(=O)CCNCc1cccc(Nc2nccc(-c3c(-c4cccc(NC(=O)Cc5cccs5)c4)nn4ccccc34)n2)c1 [Example 41, N-{3-[3-(2-{[3-({[2-(Methylsulfonyl)ethyl]amino}methyl)phenyl]-amino}-4-pyrimidinyl)pyrazolo[1,5-a]pyridin-2-yl]phenyl}-2-(2-thienyl)acetamide] | +++ (B) (at least one pIC50 measurement of greater than 7 against either ErbB2 or EGFR) | 0.1 to 1 | 0.1 to 1 |
| O=C(Cc1ccncc1)Nc1cccc(-c2nn3ccccc3c2-c2ccnc(Nc3cccc(-c4cnco4)c3)n2)c1 [Example 22, N-{3-[3-(2-{[3-(1,3-Oxazol-5-yl)phenyl]amino}-4-pyrimidinyl)pyrazolo[1,5-a]pyridin-2-yl]phenyl}-2-(4-pyridinyl)acetamide] | +++ (B) (at least one pIC50 measurement of greater than 7 against either ErbB2 or EGFR) | > 1 | > 1 |
| O=C(Cc1cccs1)Nc1cccc(-c2nn3cccc(F)c3c2-c2ccnc(Nc3cccc(F)c3)n2)c1 [Example 32, N-[3-(4-fluoro-3-{2-[(3-fluorophenyl)amino]-4-pyrimidinyl}pyrazolo[1,5-a]pyridin-2-yl)phenyl]-2-(2-thienyl)acetamide] | + (B) (no pIC50 measurement greater than 6 against either ErbB2 or EGFR) | > 1 | > 1 |
